From PubChem BioAssay AID1919005 (Molecular Pharmacology Branch, DTP, NCI, 2023)
Several values for one entry are separate records, joined by “and”; a condition that tells them apart may be missing. Identical values can stand only once.

Test system: 855422-203-R-J1-PDC complex spheroid growth
Assay: Anticancer human tumor 855422-203-R-J1-PDC patient-derived bladder carcinoma cell line growth inhibition [AhR]
Details: for viability, T/C: stronger effect = lower value
Procedure, shortened: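 Agents were dosed in half-log steps down from roughly clinical Cmax, or from 10 microM where Cmax was unknown, alone and with AhR antagonists. Read-out: percent test/control growth of tumor spheroids containing HUVEC and MSC stromal cells.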

[1] = curve of first compound, second compound 0.1 µM
[2] = curve of first compound, second compound 0.316 µM
[3] = curve of first compound, second compound 1 µM
[4] = curve of first compound, second compound 3.16 µM
[5] = curve of first compound, second compound 10 µM
[6] = second compound 0.1 µM, first compound 0.0316 µM
[7] = second compound 0.1 µM, first compound 0.1 µM
[8] = second compound 0.1 µM, first compound 0.316 µM
[9] = second compound 0.1 µM, first compound 1 µM
[10] = second compound 0.1 µM, first compound 3.16 µM
[11] = second compound 0.1 µM, first compound 10 µM
[12] = second compound 0.316 µM, first compound 0.0316 µM
[13] = second compound 0.316 µM, first compound 0.1 µM
[14] = second compound 0.316 µM, first compound 0.316 µM
[15] = second compound 0.316 µM, first compound 1 µM
[16] = second compound 0.316 µM, first compound 3.16 µM
[17] = second compound 0.316 µM, first compound 10 µM
[18] = second compound 1 µM, first compound 0.0316 µM
[19] = second compound 1 µM, first compound 0.1 µM
[20] = second compound 1 µM, first compound 0.316 µM
[21] = second compound 1 µM, first compound 1 µM
[22] = second compound 1 µM, first compound 3.16 µM
[23] = second compound 1 µM, first compound 10 µM
[24] = second compound 3.16 µM, first compound 0.0316 µM
[25] = second compound 3.16 µM, first compound 0.1 µM
[26] = second compound 3.16 µM, first compound 0.316 µM
[27] = second compound 3.16 µM, first compound 1 µM
[28] = second compound 3.16 µM, first compound 3.16 µM
[29] = second compound 3.16 µM, first compound 10 µM
[30] = second compound 10 µM, first compound 0.0316 µM
[31] = second compound 10 µM, first compound 0.1 µM
[32] = second compound 10 µM, first compound 0.316 µM
[33] = second compound 10 µM, first compound 1 µM
[34] = second compound 10 µM, first compound 3.16 µM
[35] = second compound 10 µM, first compound 10 µM
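Further: spheroids exposed to agents for seven days before readout.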
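Wherever viability, T/C is given: percent of DMSO vehicle control luminescence viability.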

Q: Which results are given for `Nc1ccn(C2OC(CO)C(O)C2(F)F)c(=O)n1` (configuration not stated) + CC(CO)NC(=O)c1cc(-c2ccc(Cl)cc2)nn(-c2cnn(C)c2)c1=O?
A: IC50 [1]: 232 nM; IC50 [2]: 166 nM; IC50 [3]: 175 nM; IC50 [4]: 99.5 nM; IC50 [5]: 132 nM; viability, T/C [6]: 99.4%; viability, T/C [7]: 79.7%; viability, T/C [8]: 38.5%; viability, T/C [9]: 18.7%; viability, T/C [10]: 14.4%; viability, T/C [11]: 10.5%; viability, T/C [12]: 88.4%; viability, T/C [13]: 71.2%; viability, T/C [14]: 22.9%; viability, T/C [15]: 15.9%; viability, T/C [16]: 13.2%; viability, T/C [17]: 8.62%; viability, T/C [18]: 97.8%; viability, T/C [19]: 74.3%; viability, T/C [20]: 23.9%; viability, T/C [21]: 17.8%; viability, T/C [22]: 14.4%; viability, T/C [23]: 8.17%; viability, T/C [24]: 89.9%; viability, T/C [25]: 50.2%; viability, T/C [26]: 22.2%; viability, T/C [27]: 16.1%; viability, T/C [28]: 11.3%; viability, T/C [29]: 9.74%; viability, T/C [30]: 81.3%; viability, T/C [31]: 59.6%; viability, T/C [32]: 19.9%; viability, T/C [33]: 14.6%; viability, T/C [34]: 14.5%; viability, T/C [35]: 8.36%

Q: Which IC50 [1] does the source give for `CC(C)c1c(-c2ccccc2)nc2c(C#N)c[nH]n2c1=O` + Cc1cncc(-c2nc(NCCc3c[nH]c4ccccc34)c3ncn(C(C)C)c3n2)c1 here?
A: > 10000 nM

Q: What about the IC50 [2] of the same compound?
A: > 10000 nM

Q: And the IC50 [3]?
A: > 10000 nM

Q: What about the IC50 [4] of the same compound?
A: > 10000 nM

Q: And the IC50 [5]?
A: < 31.6 nM

Q: What about the viability, T/C [6] of the same compound?
A: 112%

Q: What about the viability, T/C [7] of the same compound?
A: 91.1%

Q: What about the viability, T/C [8] of the same compound?
A: 104%

Q: And the viability, T/C [9]?
A: 95.9%

Q: What about the viability, T/C [10] of the same compound?
A: 94.2%

Q: What about the viability, T/C [11] of the same compound?
A: 78.8%

Q: What about the viability, T/C [12] of the same compound?
A: 90.1%

Q: What about the viability, T/C [13] of the same compound?
A: 97.2%

Q: And the viability, T/C [14]?
A: 83.8%

Q: And the viability, T/C [15]?
A: 82.5%

Q: And the viability, T/C [16]?
A: 75.4%

Q: What about the viability, T/C [17] of the same compound?
A: 78.1%

Q: And the viability, T/C [18]?
A: 82.7%

Q: And the viability, T/C [19]?
A: 92.1%

Q: And the viability, T/C [20]?
A: 90%

Q: And the viability, T/C [21]?
A: 74.3%

Q: And the viability, T/C [22]?
A: 76.4%

Q: And the viability, T/C [23]?
A: 72.1%

Q: And the viability, T/C [24]?
A: 78.6%

Q: And the viability, T/C [25]?
A: 87.2%

Q: What about the viability, T/C [26] of the same compound?
A: 84.1%

Q: And the viability, T/C [27]?
A: 57%

Q: What about the viability, T/C [28] of the same compound?
A: 68.9%

Q: What about the viability, T/C [29] of the same compound?
A: 63.9%

Q: And the viability, T/C [30]?
A: 5.73%

Q: And the viability, T/C [31]?
A: 5.87%

Q: What about the viability, T/C [32] of the same compound?
A: 2.84%

Q: What about the viability, T/C [33] of the same compound?
A: 1.09%

Q: And the viability, T/C [34]?
A: 3.05%

Q: And the viability, T/C [35]?
A: 4.37%

Q: Which results are given for `Nc1ccn(C2OC(CO)C(O)C2(F)F)c(=O)n1` (configuration not stated) + Cc1cncc(-c2nc(NCCc3c[nH]c4ccccc34)c3ncn(C(C)C)c3n2)c1?
A: IC50 [1]: 48.3 nM; IC50 [2]: 46.3 nM; IC50 [3]: 42.5 nM; IC50 [4]: 59.5 nM; IC50 [5]: < 31.6 nM; viability, T/C [6]: 65.8%; viability, T/C [7]: 22.5%; viability, T/C [8]: 15.1%; viability, T/C [9]: 12.1%; viability, T/C [10]: 10.7%; viability, T/C [11]: 7.08%; viability, T/C [12]: 61.6%; viability, T/C [13]: 26.9%; viability, T/C [14]: 12.9%; viability, T/C [15]: 12.8%; viability, T/C [16]: 10.2%; viability, T/C [17]: 7.37%; viability, T/C [18]: 59.6%; viability, T/C [19]: 22.8%; viability, T/C [20]: 13.5%; viability, T/C [21]: 9.62%; viability, T/C [22]: 10.7%; viability, T/C [23]: 8.49%; viability, T/C [24]: 65.2%; viability, T/C [25]: 37.5%; viability, T/C [26]: 16.2%; viability, T/C [27]: 8.68%; viability, T/C [28]: 11.6%; viability, T/C [29]: 9.18%; viability, T/C [30]: 6.33%; viability, T/C [31]: 1.93%; viability, T/C [32]: 1.21%; viability, T/C [33]: 0.96%; viability, T/C [34]: 2.26%; viability, T/C [35]: 2.09%

Q: How did the viability, T/C (compound 0.000949 µM) turn out when `Nc1ncn(C2CC(O)C(CO)S2)c(=O)n1` (configuration not stated) was run?
A: 108% and 96.3% and 97.9%

Q: What about the viability, T/C (compound 0.003 µM) of the same compound?
A: 93.2% and 97.4% and 100%

Q: What about the viability, T/C (compound 0.00949 µM) of the same compound?
A: 95.8% and 97.7% and 113%

Q: What about the viability, T/C (compound 0.03 µM) of the same compound?
A: 82.9% and 103% and 95.7%

Q: And the viability, T/C (compound 0.0949 µM)?
A: 86.4% and 98.1% and 91.1%

Q: And the viability, T/C (compound 0.3 µM)?
A: 81.6% and 99.8% and 82.1%

Q: And the IC50 (curve of compound)?
A: > 300 nM

Q: How did the IC50 [1] turn out when `Nc1ncn(C2CC(O)C(CO)O2)c(=O)n1` (configuration not stated) + Cc1cncc(-c2nc(NCCc3c[nH]c4ccccc34)c3ncn(C(C)C)c3n2)c1 was run?
A: > 1000 nM

Q: And the IC50 [2]?
A: > 1000 nM

Q: And the IC50 [3]?
A: > 1000 nM

Q: And the IC50 [4]?
A: > 1000 nM

Q: What about the IC50 [5] of the same compound?
A: < 3.16 nM

Q: And the viability, T/C (second compound 0.1 µM, first compound 0.00316 µM)?
A: 99.1%

Q: What about the viability, T/C (second compound 0.1 µM, first compound 0.01 µM) of the same compound?
A: 94.1%

Q: And the viability, T/C [6]?
A: 88.8%

Q: And the viability, T/C [7]?
A: 86.2%

Q: What about the viability, T/C [8] of the same compound?
A: 82%

Q: And the viability, T/C [9]?
A: 77.5%

Q: And the viability, T/C (second compound 0.316 µM, first compound 0.00316 µM)?
A: 86.8%

Q: What about the viability, T/C (second compound 0.316 µM, first compound 0.01 µM) of the same compound?
A: 88.5%

Q: And the viability, T/C [12]?
A: 81.9%

Q: And the viability, T/C [13]?
A: 79.8%

Q: What about the viability, T/C [14] of the same compound?
A: 82.5%

Q: What about the viability, T/C [15] of the same compound?
A: 75%

Q: What about the viability, T/C (second compound 1 µM, first compound 0.00316 µM) of the same compound?
A: 91.9%

Q: What about the viability, T/C (second compound 1 µM, first compound 0.01 µM) of the same compound?
A: 90%

Q: What about the viability, T/C [18] of the same compound?
A: 85.5%

Q: And the viability, T/C [19]?
A: 86.4%

Q: And the viability, T/C [20]?
A: 82.4%

Q: And the viability, T/C [21]?
A: 74.6%

Q: And the viability, T/C (second compound 3.16 µM, first compound 0.00316 µM)?
A: 79.9%

Q: What about the viability, T/C (second compound 3.16 µM, first compound 0.01 µM) of the same compound?
A: 86.5%

Q: What about the viability, T/C [24] of the same compound?
A: 79.3%

Q: What about the viability, T/C [25] of the same compound?
A: 71.4%

Q: And the viability, T/C [26]?
A: 82%

Q: What about the viability, T/C [27] of the same compound?
A: 69%

Q: What about the viability, T/C (second compound 10 µM, first compound 0.00316 µM) of the same compound?
A: 10.8%

Q: And the viability, T/C (second compound 10 µM, first compound 0.01 µM)?
A: 6.45%

Q: And the viability, T/C [30]?
A: 2.54%

Q: What about the viability, T/C [31] of the same compound?
A: 7.37%

Q: What about the viability, T/C [32] of the same compound?
A: 9.7%

Q: And the viability, T/C [33]?
A: 7.88%
